In US8293777B2, “Angiotensin II receptor antagonists” (Merck Sharp & Dohme, Corp., priority 2008, dated 2012):
pEC50: −log10 of the molar value.

How the values were obtained:
[1] = test system: conscious telemetered dogs; experiment: Systolic blood pressure lowering, oral administration to conscious telemetered dogs; format: in vivo; settings: orally administered at 3 mpk
From the text: Several examples were studied for systolic blood pressure lowering when orally administered to conscious telemetered dogs at 3 mpk (see Data Table 1).

[2] = test system: isolated rabbit thoracic aorta preparations; experiment: Vessel relaxation in isolated rabbit thoracic aorta preparations; format: cell-based; settings: Oryctolagus cuniculus; rabbit aortic rings precontracted with noradrenaline, functional endothelium
Protocol: The ability of the compounds to induce vasorelaxation was tested in vitro in isolated rabbit thoracic aorta preparations (Wanstall J. C. et al., Br. J. Pharmacol., 134:463-472, 2001). Male New Zealand rabbits were anaesthetized with thiopental-Na (50 mg/kg, iv), sacrificed by exsanguinations and then the thorax was opened and the aorta dissected. Aortic ring preparations (4 mm in length) were set up in physiological salt solution (PSS) at 37° C. in small organ chambers (5 ml). The composition of PSS was (mM): NaCl 130, NaHCO3 14.9, KH2PO4 1.2, MgSO4 1.2, HEPES 10, CaCl2, ascorbic acid […] and glucose 1.1 (95% O2/5% CO2; pH 7.4). Each ring was mounted under 2 g passive tension. Isometric tension was recorded with a Grass transducer (Grass FT03) attached to a BIOPAC MP150 System. Preparations were allowed to equilibrate for 1 h, and then contracted submaximally with noradrenaline (NA, 1 μM) and, when the contraction was stable, acetylcholine (ACh, 10 μM) was added. A relaxant response to ACh indicated the presence of a functional endothelium. […] When a stable precontraction was reached, a cumulative concentration-response curve to either of the vasorelaxant agents was obtained in the presence of a functional endothelium. Each arterial ring was exposed to only one combination of inhibitor and vasorelaxant. […]
Example 2 was evaluated for vessel relaxation.

| Structure (SMILES) | Approximate change in systolic blood pressure ([1]; 1-6 h) | Approximate change in systolic blood pressure ([1]; 6-12 h) | Approximate change in systolic blood pressure ([1]; 12-18 h) | Approximate change in systolic blood pressure ([1]; 1-6 h, 3 mg/kg) | Approximate change in systolic blood pressure ([1]; 6-12 h, 3 mg/kg) | Approximate change in systolic blood pressure ([1]; 12-18 h, 3 mg/kg) | pEC50 [2] |
| --- | --- | --- | --- | --- | --- | --- | --- |
| CCCCc1nc(Cl)c(C(=O)O[C@H](C)OC(=O)[C@@H]2C[C@H](OC)[C@@H](O[N+](=O)[O-])C2)n1Cc1ccc(-c2ccccc2-c2nnn[nH]2)cc1 [Example 7] | −9 mm Hg | −1 mm Hg | 2 mm Hg |  |  |  |  |
| CCOc1nc2cccc(C(=O)OC(C)OC(=O)[C@@H]3C[C@H](OC)[C@@H](O[N+](=O)[O-])C3)c2n1Cc1ccc(-c2ccccc2-c2nnn[nH]2)cc1 (stereo partly drawn) [Example 2, D2, 1-({[(1R,3S,4S)-3-methoxy-4-(nitrooxy)cyclopentyl]carbonyl}oxy)ethyl 2-ethoxy-1-{[2′-(1H-tetrazol-5-yl)biphenyl-4-yl]methyl}-1H-benzimidazole-7-carboxylate] |  |  |  | −19 mm Hg | −12 mm Hg | −5 mm Hg | < 4.60 |
| CCOc1nc2cccc(C(=O)OC(C)OC(=O)[C@@H]3C[C@H](OC)[C@@H](O[N+](=O)[O-])C3)c2n1Cc1ccc(-c2ccccc2-c2nnn[nH]2)cc1 (stereo partly drawn) [Example 2, D1, 1-({[(1R,3S,4S)-3-methoxy-4-(nitrooxy)cyclopentyl]carbonyl}oxy)ethyl 2-ethoxy-1-{[2′-(1H-tetrazol-5-yl)biphenyl-4-yl]methyl}-1H-benzimidazole-7-carboxylate] |  |  |  | −15 mm Hg | −11 mm Hg | −1 mm Hg |  |
| CCCCC(=O)N(Cc1ccc(-c2ccccc2-c2nnn[nH]2)cc1)[C@H](C(=O)O[C@@H](C)OC(=O)[C@@H]1C[C@H](OC)[C@@H](O[N+](=O)[O-])C1)C(C)C [Example 5, (1S)-1-({[(1R,3S,4S)-3-methoxy-4-(nitrooxy)cyclopentyl]carbonyl}oxy)ethyl N-pentanoyl-N-{[2′-(1H-tetrazol-5-yl)biphenyl-4-yl]methyl}-L-valinate] | −8 mm Hg | −2 mm Hg | 8 mm Hg |  |  |  |  |
